Results as given in patent US7326707B2, “Bicyclic melanocortin-specific compounds” (Palatin Technologies Incorporated, priority 2001, dated 2008).

Columns and labels:
[1] = biological target: T1, MC4-R (HEK-293 cells expressing MC4-R) (Homo sapiens, UniProt P32245); assay: Ki determination by the method of Example 4, MC4-R; assay type: cell-based
T1 construct: expressed in transfected cells; host or cells: HEK-293
Method: (§1) The Ki (nM) of certain compounds of the invention were determined. Functional evaluation of compounds at melanocortin receptors was performed by measuring the accumulation of intracellular cAMP in HEK-293 cells expressing MC3-R, MC4-R or MC5-R, and in B-16 mouse melanoma cells (containing MC1-R). Cells, suspended in Earle's Balanced Salt Solution containing 10 mM HEPES, pH 7.5, 5 mM MgCl2, 1 mM glutamine, 0.1% albumin and 0.6 mM 3-isobutyl-1-methyl-xanthine, a phosphodiesterase inhibitor, were plated in 96 well plates at a density of 0.5×10^5 cells per well. Cells were incubated with the test compounds in the presence or absence of α-MSH for 1 hour at 37° C. cAMP levels were measured by EIA (Amersham) in the cell lysates. Data analysis and EC50 values were determined using nonlinear regression analysis with Prism Graph-Pad software.

[2] = biological target: T2, hMC5-R (Homo sapiens, UniProt P33032); assay: Competitive inhibition binding assay, 125I-NDP-α-MSH, MC5-R; conditions: for Inhibition at 1 μM MC5-R: 1 μM compound, inhibition of 125I-NDP-α-MSH binding, mean of triplicates, results less than 0% reported as 0%
T2 construct: expressed in transfected cells
T2 sequence (P33032 whole entry): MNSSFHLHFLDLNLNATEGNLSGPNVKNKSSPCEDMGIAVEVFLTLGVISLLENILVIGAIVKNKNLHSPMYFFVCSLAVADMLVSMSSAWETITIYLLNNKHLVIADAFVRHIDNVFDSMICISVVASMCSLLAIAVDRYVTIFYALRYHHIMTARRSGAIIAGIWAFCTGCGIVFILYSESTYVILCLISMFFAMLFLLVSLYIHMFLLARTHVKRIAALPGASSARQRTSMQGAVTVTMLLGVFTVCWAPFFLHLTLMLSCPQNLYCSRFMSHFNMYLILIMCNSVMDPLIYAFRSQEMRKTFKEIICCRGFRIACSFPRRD
Method: (§2) Incubation was for 90 minutes at room temperature, after which the assay mixture was filtered and the membranes washed three times with ice cold buffer. The filter was dried and counted in a gamma counter for remaining radioactivity bound to the membranes. […] Each assay was conducted in triplicate and the actual mean values are described.

[3] = biological target: T3, MC1-R (B-16 mouse melanoma cells) (Mus musculus, UniProt Q01727); assay: Ki determination by the method of Example 4, MC1-R; assay type: cell-based
T3 construct: B-16 mouse melanoma cells (containing MC1-R); endogenous in cells; host or cells: B-16 mouse melanoma cells
T3 sequence (Q01727 whole entry): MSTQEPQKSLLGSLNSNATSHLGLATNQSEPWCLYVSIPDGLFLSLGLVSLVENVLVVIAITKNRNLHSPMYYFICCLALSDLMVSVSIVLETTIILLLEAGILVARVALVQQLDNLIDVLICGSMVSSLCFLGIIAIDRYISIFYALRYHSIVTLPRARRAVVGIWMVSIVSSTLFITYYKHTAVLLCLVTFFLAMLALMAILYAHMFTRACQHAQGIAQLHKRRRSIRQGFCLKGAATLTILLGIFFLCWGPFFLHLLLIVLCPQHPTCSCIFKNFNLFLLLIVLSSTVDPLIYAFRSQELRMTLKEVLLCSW

[4] = biological target: T4, MC3-R (HEK-293 cells expressing MC3-R) (Homo sapiens, UniProt P41968); assay: Ki determination by the method of Example 4, MC3-R; assay type: cell-based
T4 construct: expressed in transfected cells; host or cells: HEK-293
T4 sequence (P41968 whole entry): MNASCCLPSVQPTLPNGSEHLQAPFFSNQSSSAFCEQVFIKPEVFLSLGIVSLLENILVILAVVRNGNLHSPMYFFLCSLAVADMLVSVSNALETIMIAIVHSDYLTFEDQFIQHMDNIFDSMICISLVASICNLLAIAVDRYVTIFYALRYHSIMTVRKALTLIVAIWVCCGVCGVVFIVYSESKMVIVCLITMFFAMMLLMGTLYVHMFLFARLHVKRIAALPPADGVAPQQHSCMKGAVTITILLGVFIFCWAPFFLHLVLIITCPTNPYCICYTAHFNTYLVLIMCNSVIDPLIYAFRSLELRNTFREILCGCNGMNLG

[5] = biological target: T5, hMC3-R (Homo sapiens, UniProt P41968); assay: Competitive inhibition binding assay, 125I-NDP-α-MSH, MC3-R; conditions: for Inhibition at 1 μM MC3-R: 1 μM compound, inhibition of 125I-NDP-α-MSH binding, mean of triplicates, results less than 0% reported as 0%
T5 construct: expressed in transfected cells
T5 sequence (P41968 whole entry): as above
Method: as §2

[6] = biological target: T6, MC5-R (HEK-293 cells expressing MC5-R) (Homo sapiens, UniProt P33032); assay: Ki determination by the method of Example 4, MC5-R; assay type: cell-based
T6 construct: expressed in transfected cells; host or cells: HEK-293
T6 sequence (P33032 whole entry): as the sequence (P33032 whole entry) above

[7] = biological target: T7, B-16 mouse melanoma cells (containing MC1-R) (Mus musculus, UniProt Q01727); assay: Competitive inhibition binding assay, 125I-NDP-α-MSH, MC1-R; conditions: for Inhibition at 1 μM MC1-R: 1 μM compound, inhibition of 125I-NDP-α-MSH binding, mean of triplicates, results less than 0% reported as 0%
T7 construct: B-16 mouse melanoma cells (containing MC1-R); endogenous in cells; host or cells: B-16 mouse melanoma cells
T7 sequence (Q01727 whole entry): as the sequence (Q01727 whole entry) above
Method: as §2

[8] = biological target: T8, hMC4-R (Homo sapiens, UniProt P32245); assay: Competitive inhibition binding assay, 125I-NDP-α-MSH, MC4-R; conditions: for Inhibition at 1 μM MC4-R: 1 μM compound, inhibition of 125I-NDP-α-MSH binding, mean of triplicates, results less than 0% reported as 0%
T8 construct: expressed in transfected cells
T8 sequence (P32245 whole entry): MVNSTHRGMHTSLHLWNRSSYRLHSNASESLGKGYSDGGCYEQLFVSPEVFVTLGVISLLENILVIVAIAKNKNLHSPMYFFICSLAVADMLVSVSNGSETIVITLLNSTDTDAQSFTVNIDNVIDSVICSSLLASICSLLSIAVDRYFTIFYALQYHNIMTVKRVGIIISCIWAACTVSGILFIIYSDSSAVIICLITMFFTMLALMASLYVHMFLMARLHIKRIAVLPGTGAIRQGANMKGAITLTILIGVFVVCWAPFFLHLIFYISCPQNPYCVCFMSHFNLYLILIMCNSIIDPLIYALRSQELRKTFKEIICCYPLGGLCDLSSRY
Method: as §2

[9] = biological target: T6, MC5-R (HEK-293 cells expressing MC5-R); assay: cAMP assay for agonist/antagonist status, MC5-R; assay type: cell-based; conditions: cAMP assay as in Example 5
Method: as §1
(§3) The agonist/antagonist status with respect to MC1-R, MC4-R and MC5-R of certain compounds of the invention was determined. Antagonistic activity was determined by measuring the inhibition of α-MSH-induced cAMP levels following exposure to the compounds as in Example 4.

[10] = biological target: T1, MC4-R (HEK-293 cells expressing MC4-R); assay: cAMP assay for agonist/antagonist status, MC4-R; assay type: cell-based; conditions: cAMP assay as in Example 5
Method: as §1, §3

[11] = biological target: T3, MC1-R (B-16 mouse melanoma cells); assay: cAMP assay for agonist/antagonist status, MC1-R; assay type: cell-based; conditions: cAMP assay as in Example 5
Method: as §1, §3

[12] = tested on: Male Sprague-Dawley rats; assay: ICV food intake and body weight change; assay type: in vivo, rat; conditions: 1 nmol dose
Method: Change in food intake and body weight was evaluated for selected compounds. Male Sprague-Dawley rats weighing ˜300 g at the beginning of the experiment were kept on a 12 hour on/off light cycle. Lights out was adjusted to 12:00 p.m. to allow for dosing just prior to the start of their dark period. Rats (8-12/group) were fed powdered chow and water ad libitum. For 1 week before treatment, 24-hour food intake and body weight change was recorded to assess a baseline for the group during vehicle treatment. The rats were dosed ICV with vehicle or selected compounds (1-3 nmol). The changes in body weight and food intake for the 24 hour period after dosing were determined. The changes in body weight and food intake for the 48 hour period, and in same cases for 72 hours as well, after dosing were also measured to determined reversal of changes in body weight and food intake effect back to baseline.

T1 sequence (P32245 whole entry): as above

SMILES	Ki [1]	inhibition at 1 µM [2]	Ki [3]	Ki [4]	inhibition at 1 µM [5]	Ki [6]	inhibition at 1 µM [7]	inhibition at 1 µM [8]	Inhibition at 1 μM MC5-R [2]	Inhibition at 1 μM MC3-R [5]	Inhibition at 1 μM MC1-R [7]	Inhibition at 1 μM MC4-R [8]	agonist/antagonist status as to MC5-R [9]	agonist/antagonist status as to MC4-R [10]	agonist/antagonist status as to MC1-R [11]	24 hour change in food intake [12]	change in weight ([12]; 24 hour)
N=C(N)NCCCC1C(=O)N2C(COc3ccc4ccccc4c3)CCC2N1CC(N)Cc1ccc(Cl)cc1Cl (centres unmarked) [Compound O]	29 nM	49%	848 nM	505 nM	28%	689 nM	2%	91%	–	–	–	–	–	–	–	–	–
N=C(N)NCCCC1C(=O)N2C(Cc3ccc4ccccc4c3)CCC2N1C(=O)C(N)Cc1ccc(Cl)cc1Cl (centres unmarked) [Compound G]	19 nM	46%	63 nM	121 nM	63%	1050 nM	76%	93%	–	–	–	–	agonist	agonist	–	–	–
N=C(N)NCCCC1C(=O)N2C(COc3ccc4ccccc4c3)CCC2N1C(=O)C(Cc1ccccc1Cl)NC(=O)C1CC(OCc2ccccc2)CN1 (centres unmarked) [Example 31]	–	–	–	–	–	–	–	–	–	–	–	–	–	agonist	agonist	–	–
N=C(N)NCCCC1C(=O)N2C(COc3ccc4ccccc4c3)CCC2N1C(=O)C(Cc1ccc(Cl)cc1Cl)NC(=O)C1CCC(c2ccccc2)N1 (centres unmarked) [Example 46]	–	–	1040 nM	312 nM	–	–	–	–	–	–	–	–	–	–	–	-9.52 g	-10.64 g
N=C(N)NCCCC1C(=O)N2C(COc3ccc4ccccc4c3)CCC2N1C(=O)C(N)Cc1ccc(Cl)cc1Cl (centres unmarked) [Compound B]	11 nM	69%	144 nM	132 nM	75%	499 nM	54%	98%	–	–	–	–	agonist	agonist	agonist	–	–
[2H]N[C@@H](Cc1cnc[nH]1)C(=O)N[C@@H](Cc1ccccc1)C(=O)N1C[C@H](OCc2ccccc2)C[C@H]1C(=O)NCCCCCN [Example 26]	–	–	–	–	–	–	–	–	14%	0%	34%	47%	–	–	–	–	–
N=C(N)NCCCC1C(=O)N2C(COc3ccc4ccccc4c3)CCC2N1C(=O)C(Cc1ccccc1Cl)NC(=O)C1Cc2ccccc2CN1 (centres unmarked) [Example 29]	9 nM	87%	81 nM	756 nM	42%	301 nM	77%	98%	–	–	–	–	–	–	–	–	–
[2H]N[C@@H](Cc1cnc[nH]1)C(=O)N[C@@H](Cc1ccccc1)C(=O)N1C[C@H](OCc2ccccc2)C[C@H]1C(=O)NCCCCCCN [Example 27]	–	–	–	–	–	–	–	–	17%	0%	39%	12%	–	–	–	–	–

More lines, main results first:

Ki [1]	inhibition at 1 µM [2]	Ki [3]	Ki [4]	inhibition at 1 µM [5]	Ki [6]	inhibition at 1 µM [7]	inhibition at 1 µM [8]	Inhibition at 1 μM MC5-R [2]	Inhibition at 1 μM MC3-R [5]	Inhibition at 1 μM MC1-R [7]	Inhibition at 1 μM MC4-R [8]	SMILES	agonist/antagonist status as to MC5-R [9]	agonist/antagonist status as to MC4-R [10]	agonist/antagonist status as to MC1-R [11]	24 hour change in food intake [12]	change in weight ([12]; 24 hour)
24 nM	73%	10 nM	787 nM	24%	398 nM	95%	94%	–	–	–	–	NCCCCC1C(=O)N2C(COc3ccc4ccccc4c3)CCC2N1C(=O)C(Cc1ccc(Cl)cc1)NC(=O)C1Cc2ccccc2CN1 (centres unmarked) [Example 11]	–	–	–	–	–
22 nM	95%	13 nM	181 nM	75%	116 nM	98%	98%	–	–	–	–	CCCCCCC(=O)NC(COCc1ccccc1)C(=O)NC(Cc1ccc(Cl)cc1)C(=O)N1C(CCCCN)C(=O)N2C(COc3ccc4ccccc4c3)CCC21 (centres unmarked) [Example 12]	–	–	–	–	–
–	0%	–	–	4%	–	1%	0%	–	–	–	–	[2H]N[C@@H](Cc1ccccc1)C(=O)N1C2CC[C@H](COc3ccccc3)N2C(=O)[C@@H]1CCCCN (some centres unmarked) [Example 36]	–	–	–	–	–
–	0%	–	–	0%	–	–	36%	–	–	–	–	[2H]N[C@@H](Cc1cnc[nH]1)C(=O)N[C@@H](Cc1ccccc1)C(=O)N1C2CC[C@H](COc3ccc4ccccc4c3)N2C(=O)[C@@H]1CCCCN (some centres unmarked) [Example 42]	–	–	–	–	–
41 nM	94%	121 nM	733 nM	29%	151 nM	57%	94%	–	–	–	–	N=C(N)NCCCC1C(=O)N2C(COc3ccc4ccccc4c3)CCC2N1C(=O)C(Cc1ccccc1Cl)NC(=O)C(N)COCc1ccccc1 (centres unmarked) [Example 30]	–	–	–	–	–
–	1%	–	–	13%	–	46%	0%	–	–	–	–	[2H]N[C@@H](Cc1ccccc1)C(=O)N1C2CC[C@H](COc3ccc4ccccc4c3)N2C(=O)[C@@H]1CCCCN (some centres unmarked) [Example 38]	–	–	–	–	–
